These results are taken from patent US6190848A, “Color photographic element containing ballasted triazole derivative and inhibitor releasing coupler” (priority 1999, dated 2001).

Assay [1] is described as follows: Multilayer film: interimage (density change in receiver record) and relative green or blue sensitivity. The note with it: for Interimage B → G / Relative Green Sensitivity: IDIR-2 in blue layers. The text has this: Comparative examples are designated ML-C; inventive examples are designated ML-I.
Experimental Sample ML-C-0:
Layer 1 (Antihalation layer): black colloidal silver sol at 0.140; gelatin at 2.15; OxDS-1 at 0.108, DYE-1 at 0.049; DYE-2 at 0.017 and DYE-3 at 0.014.
Layer 2 (Slow cyan layer): a blend of three red sensitized (all with a mixture of RSD-1 and RSD-2) silver iodobromide emulsions: (i) a large sized tabular grain emulsion (1.3×0.118, 4.1 mole % I) at 0.522 (ii) a smaller tabular emulsion (0.85×0.115, 4.1 mole % I) at 0.337 and (iii) a very small tabular grain emulsion (0.55×0.115, 1.5 mole % I) at 0.559; gelatin at 2.85; cyan dye-forming coupler C-1 at 0.452; CDIR-1 at 0.043; bleach accelerator releasing coupler B-1 at 0.054 and anti-foggant 4-hydroxy-6-methyl-1,3,3a,7-tetraazaindene at 0.016.
Layer 3 (Fast cyan layer): a red-sensitized (same as above) tabular silver iodobromide emulsion (2.2×0.128, 4.1 mole % I) at 0.086; cyan coupler C-1 at 0.081; CDIR-1 at 0.034; MC-1 at 0.043; gelatin at 1.72 and anti-foggant 4-hydroxy-6-methyl-1,3,3a,7-tetraazaindene at 0.010.
Layer 4 (Interlayer): gelatin at 1.29.
Layer 5 (Slow magenta layer): a blend of two green sensitized (both with a mixture of GSD-1 and GSD-2) silver iodobromide emulsions: (i) 0.54×0.091, 4.1 mole % iodide at 0.194 and (ii) 0.52×0.085, 1.5 mole % iodide at 0.559; magenta dye forming coupler M-1 at 0.24, gelatin at 1.08 and anti-foggant 4-hydroxy-6-methyl-1,3,3a,7-tetraazaindene at 0.005.
Layer 6 (Mid magenta layer): a blend of two green sensitized (same as above) tabular silver iodobromide emulsions (i) 1.3×0.113, 4.1 mole % I at 0.430 and (ii) […], 4.1 mole % I at 0.172; magenta dye forming coupler M-1 at 0.065; MC-2 at 0.015; IDIR-5 at 0.016; gelatin at 2.12 and anti-foggant 4-hydroxy-6-methyl-1,3,3a,7-tetraazaindene at 0.003.
Layer 7 (Fast magenta layer): a green sensitized tabular silver iodobromide (1.8×0.127, 4.1 mole % I) emulsion at 0.689; gelatin at 1.61; magenta dye forming coupler M-1 at 0.043; MC-2 at 0.054 and CDIR-2 at 0.003.
Layer 8 (Yellow filter layer): gelatin at 0.86; Carey-Lea silver at 0.043 and OxDS-2 at 0.054.
Layer 9 (Slow yellow layer): an equal blend of three blue sensitized (all with YSD-1) silver iodobromide emulsions (i) 0.50×0.085, 1.5 mole % I (ii) 0.60 diameter 3-D, 3% mole I and (iii) 0.68 diameter 3-D, 3 mole % I at a total of 0.430; yellow dye forming coupler Y-2 at 0.699; yellow dye forming coupler Y-3 at 0.215; IDIR-2 at 0.086; C-1 at 0.097 and gelatin at 2.066.
Layer 10 (Fast yellow layer): two blue sensitized (with YSD-1) silver iodobromide emulsions (i) 3.1×0.137 tabular, 4.1 mole % I at 0.396 (ii) 0.95 diameter 3-D, 7.1 mole % I at 0.47; Y-2 at 0.131; Y-3 at 0.215; IDIR-2 at 0.075; C-1 at 0.011; B-1 at 0.008 and gelatin at 1.08.
Layer 11 (Protective overcoat and UV filter layer): gelatin at 1.61; silver bromide Lippman emulsion at 0.215; UV-1 and UV-2 (1:1 ratio) at a total of 0.023 and bis(vinylsulfonyl)methane hardener at 1.6% of total gelatin weight.
Surfactants, coating aids, emulsion addenda. sesquestrants, lubricants, matte and tinting dyes were added to the appropriate layers as is common in the art. The following describes the composition of each particular experimental coating based on ML-C-0:
ML-C-1: Like ML-C-0, but IDIR-6 replaces IDIR-2 in layers 9 and 10 at equimolar levels.
ML-C-2: Like ML-C-0, but IDIR-1 replaces IDIR-5 in layer 6 at 0.032.
ML-I-0: Like ML-C-0, but IEM-A added at 3×10^-4 in layer 5, 2×10^-4 in layer 6 and 2.9×10^-4 in layer 7.
ML-I-1: Like ML-C-0, but IEM-A added at 3×10^-3 in layer 5, 2×10^-3 in layer 6 and 2.9×10^-3 in layer 7.
ML-I-2: Like ML-C-0, but IEM-A added at 3×10^-2 in layer 5, 2×10^-2 in layer 6 and 2.9×10^-2 in layer 7.
ML-I-3: Like ML-C-0, but IEM-A added at 1.6×10^-3 in layers 9 and 10.
ML-I-4: Like ML-C-1, but IEM-A added at 1.6×10^-3 in layers 9 and 10.
ML-I-5: Like ML-C-2, but IEM-A added at 1.6×10^-3 in layers 9 and 10. […]

Assay [2] is described as follows: Bilayer photographic element: interimage (Cg/Cb+g) and relative green sensitivity. How it is done: Bilayer photographic elements were prepared by coating the following layers on a cellulose triacetate film support (coverages are in g/m^2). Unless otherwise noted, all comparative and inventive compounds were dispersed in twice their own weight of N,N-dibutyllauramide:
Layer 1 (Antihalation Layer): black colloidal elemental silver at 0.34 and gelatin at2.41.
Layer 2 (Receiver Layer): gelatin at 2.79, CDIR-2 at 0.03, coupler M-1 (dispersed as described previously) added at 0.045, comparison material (CIEM) or IEM added at 7.2×10^-3 mmol/m^2 (this corresponds to 1.67 mmol per mole silver as AgBr or 0.96 mmol per mole of silver) dispersed in twice its own weight of N,N-dibutyllauramide and 0.81 green sensitized AgIBr tabular emulsion.
Layer 3 (Interlayer): gelatin at 0.64, ILS-1 at 0.11 and FD-1 at 0.11.
Layer 4 (Causer Layer): gelatin at 2.79, coupler Y-1 at 0.91, 0.79 blue sensitized AgIBr tabular emulsion and the DIR at 0.11 mmol/m^2.
Layer 5 (Overcoat): gelatin at 2.79 and 0.02 bis-vinylsulfonemethylether.
Samples of each element were given a stepped exposure of either green light only or blue and green light combined and processed in the KODAK FLEXICOLOR (C-41) process as described in British Journal of Photography Annual, 1988, pp196-198. Contrast of the elements was determined using the maximum slope between any two density points. In this test, the ratio of the contrast of the green only exposure to the contrast of the green of a blue and green exposure (Cg /Cb+g) is a measure of the interimage. A higher ratio means more inhibition originating from the blue and affecting the green record.
Another set of bilayer experiments were generated in a similar manner to show the effect of IEM laydown (as mmol per mol silver) and DIR variations.

The mark [3] stands for this setting: Table IV ML-I-0: 0.14 mmol IEM-A/mol silver in layers 5, 6, 7.
The mark [4] stands for this setting: Table IV ML-I-1: 1.4 mmol IEM-A/mol silver in layers 5, 6, 7.
[5] abbreviates: Table IV ML-I-2: 14 mmol IEM-A/mol silver in layers 5, 6, 7.
[6] abbreviates: Table V ML-I-3: IEM in blue layer, IDIR-2 in blue, IDIR-5 in green.
Where [7] appears, read: Table V ML-I-4: IEM in blue layer, IDIR-6 in blue, IDIR-5 in green.
The mark [8] stands for this setting: Table V ML-I-5: IEM in blue layer, IDIR-2 in blue, IDIR-1 in green.
Where [9] appears, read: Table V ML-I-6: IEM in blue layer, IDIR-6 in blue, IDIR-1 in green.
Where [10] appears, read: Table III BL-23: laydown 0.96 mmol per mol silver, IDIR-2 in blue.
Setting [11] is: Table III BL-24: laydown 9.6 mmol per mol silver, IDIR-2 in blue.
The mark [12] stands for this setting: Table III BL-26: laydown 0.96 mmol per mol silver, IDIR-6 in blue.
Where [13] appears, read: Table III BL-27: laydown 9.6 mmol per mol silver, IDIR-6 in blue.

Consider `CCC(C)(C)c1ccc(OCCCCNC(=O)c2ccc3[nH]nnc3c2)c(C(C)(C)CC)c1` [IEM-A], for which the “Interimage B → G” value in assay [1] (setting [3]) is -0.041; in assay [1] (setting [4]), -0.100; in assay [1] (setting [5]), -0.097. The “Relative Green Sensitivity” value was determined as 0.99 in assay [1] (setting [3]); 0.96 in assay [1] (setting [4]); 0.82 in assay [1] (setting [5]); 0.95 in assay [2] (setting [10]); 0.82 in assay [2] (setting [11]); 0.96 in assay [2] (setting [12]). Moreover, the “Relative Green Sensitivity” value in assay [2] (setting [13]) is listed as 0.89. Besides, the “Interimage G → B” value in assay [1] (setting [6]) is given as -0.154; in assay [1] (setting [7]) it was -0.155; in assay [1] (setting [8]), -0.202; in assay [1] (setting [9]), -0.243. In addition, the “Relative Blue Sensitivity” value is on record as 0.98 in assay [1] (setting [6]), 0.97 in assay [1] (setting [7]), 0.98 in assay [1] (setting [8]) and 0.96 in assay [1] (setting [9]). The “Cg /Cb+g (interimage ratio)” value was determined as 1.65 in assay [2] (Table II, IDIR-2 in blue layer, IEM or CIEM at 7.2×10^-3 mmol/m^2); 1.95 in assay [2] (setting [10]); 1.62 in assay [2] (setting [11]); 1.33 in assay [2] (setting [12]); 1.59 in assay [2] (setting [13]).
